In ChEMBL document CHEMBL5303573, “Mapping human microbiome drug metabolism by gut bacteria and their genes” (Nature, 2019):

What was measured:
Type in all cases: ADME
Design in all cases: dose 2 uM
Conditions in all cases: 2 µM
Diguanylate cyclase = target: T1, Diguanylate cyclase (Collinsella aerofaciens, UniProt A4EB91); assay: (§1) The drug is tested on Collinsella aerofaciens strain: ATCC25986 for biotransformation. The drug concentrations were measured before and after a 12-h incubation by liquid-chromatography-coupled mass spectrometry (LC–MS)
T1 sequence (A4EB91 whole entry): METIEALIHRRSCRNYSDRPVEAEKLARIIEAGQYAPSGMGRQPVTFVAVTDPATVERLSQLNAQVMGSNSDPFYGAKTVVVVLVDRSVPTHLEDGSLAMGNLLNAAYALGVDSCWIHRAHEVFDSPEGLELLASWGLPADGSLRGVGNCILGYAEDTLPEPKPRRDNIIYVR

Flavodoxin = target: T2, Flavodoxin (Collinsella aerofaciens, UniProt A4ED08); assay: as §1
T2 sequence (A4ED08 whole entry): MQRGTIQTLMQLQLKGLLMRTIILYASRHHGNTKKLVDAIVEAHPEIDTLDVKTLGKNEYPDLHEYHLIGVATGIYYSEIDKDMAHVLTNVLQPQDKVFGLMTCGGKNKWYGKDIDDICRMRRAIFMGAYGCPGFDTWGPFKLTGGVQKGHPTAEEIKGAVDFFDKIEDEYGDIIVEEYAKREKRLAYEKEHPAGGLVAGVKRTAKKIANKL

GDSL-like protein [1] = target: T3, GDSL-like protein (Collinsella aerofaciens, UniProt A4E7D0); assay: as §1
T3 sequence (A4E7D0 whole entry): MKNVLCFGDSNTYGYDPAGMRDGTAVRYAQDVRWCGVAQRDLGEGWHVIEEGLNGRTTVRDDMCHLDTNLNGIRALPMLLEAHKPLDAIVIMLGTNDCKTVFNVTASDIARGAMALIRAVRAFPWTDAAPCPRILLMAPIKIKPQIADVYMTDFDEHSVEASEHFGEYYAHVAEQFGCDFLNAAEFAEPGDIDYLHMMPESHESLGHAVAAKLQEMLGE

GDSL-like protein [2] = target: T4, GDSL-like protein (Collinsella aerofaciens, UniProt A4E8S4); assay: as §1
T4 sequence (A4E8S4 whole entry): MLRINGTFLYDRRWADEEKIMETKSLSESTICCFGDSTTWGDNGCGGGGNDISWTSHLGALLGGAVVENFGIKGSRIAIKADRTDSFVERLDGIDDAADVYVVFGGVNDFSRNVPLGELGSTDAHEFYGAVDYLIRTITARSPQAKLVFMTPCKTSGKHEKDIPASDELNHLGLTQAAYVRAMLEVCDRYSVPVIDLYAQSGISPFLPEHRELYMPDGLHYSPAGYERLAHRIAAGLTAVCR

[3] = target: T5, Pyridine nucleotide-disulfide oxidoreductase (Collinsella aerofaciens, UniProt A4EBM5); assay: as §1
T5 sequence (A4EBM5 whole entry): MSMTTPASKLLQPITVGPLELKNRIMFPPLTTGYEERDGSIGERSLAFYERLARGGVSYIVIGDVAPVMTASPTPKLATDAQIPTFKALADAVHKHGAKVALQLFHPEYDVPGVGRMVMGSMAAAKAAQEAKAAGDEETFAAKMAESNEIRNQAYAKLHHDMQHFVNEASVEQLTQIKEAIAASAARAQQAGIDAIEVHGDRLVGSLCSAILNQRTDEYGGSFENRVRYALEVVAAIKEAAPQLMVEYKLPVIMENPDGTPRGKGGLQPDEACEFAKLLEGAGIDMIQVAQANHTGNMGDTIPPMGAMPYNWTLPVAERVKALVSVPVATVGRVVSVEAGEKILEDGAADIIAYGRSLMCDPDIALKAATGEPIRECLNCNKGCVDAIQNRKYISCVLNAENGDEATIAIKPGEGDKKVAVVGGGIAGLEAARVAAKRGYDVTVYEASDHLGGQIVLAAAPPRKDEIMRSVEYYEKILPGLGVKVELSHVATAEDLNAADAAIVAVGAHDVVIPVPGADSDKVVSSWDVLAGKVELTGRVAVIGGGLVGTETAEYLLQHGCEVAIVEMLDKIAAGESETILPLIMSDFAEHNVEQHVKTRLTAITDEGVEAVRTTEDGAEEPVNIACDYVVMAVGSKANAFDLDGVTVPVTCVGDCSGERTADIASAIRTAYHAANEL

Esterase = target: T6, Esterase (Phocaeicola dorei, UniProt B6W2J6); assay: (§2) The drug is tested on Bacteroides dorei strain: DSM17855 for biotransformation. The drug concentrations were measured before and after a 12-h incubation by liquid-chromatography-coupled mass spectrometry (LC–MS)
T6 sequence (B6W2J6 whole entry): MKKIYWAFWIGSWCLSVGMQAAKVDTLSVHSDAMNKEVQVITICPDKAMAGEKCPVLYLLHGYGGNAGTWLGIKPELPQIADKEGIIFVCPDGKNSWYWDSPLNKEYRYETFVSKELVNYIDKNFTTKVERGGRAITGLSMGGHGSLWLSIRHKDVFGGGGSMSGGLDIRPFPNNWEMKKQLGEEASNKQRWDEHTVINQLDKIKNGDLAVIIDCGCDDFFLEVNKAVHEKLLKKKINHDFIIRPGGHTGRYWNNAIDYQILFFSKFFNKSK

[4] = target: T7, Nitroreductase domain-containing protein (Phocaeicola dorei, UniProt B6W3P3); assay: as §2
T7 sequence (B6W3P3 whole entry): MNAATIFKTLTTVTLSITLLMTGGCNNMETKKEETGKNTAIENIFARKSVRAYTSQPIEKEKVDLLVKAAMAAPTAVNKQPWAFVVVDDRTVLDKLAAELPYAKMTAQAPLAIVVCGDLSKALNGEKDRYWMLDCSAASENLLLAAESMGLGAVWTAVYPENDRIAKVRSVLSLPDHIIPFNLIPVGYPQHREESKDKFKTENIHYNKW

[5] = target: T8, SGNH hydrolase-type esterase domain-containing protein (Phocaeicola dorei, UniProt B6W1J1); assay: as §2
T8 sequence (B6W1J1 whole entry): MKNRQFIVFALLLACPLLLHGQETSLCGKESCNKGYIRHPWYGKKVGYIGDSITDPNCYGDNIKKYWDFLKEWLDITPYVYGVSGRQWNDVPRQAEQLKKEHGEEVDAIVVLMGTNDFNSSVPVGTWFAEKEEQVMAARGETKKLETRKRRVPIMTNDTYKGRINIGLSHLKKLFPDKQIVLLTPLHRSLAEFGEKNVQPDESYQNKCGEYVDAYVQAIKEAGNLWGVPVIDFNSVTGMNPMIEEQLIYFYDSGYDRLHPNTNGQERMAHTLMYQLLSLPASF

[6] = target: T9, Steroid 5-alpha reductase C-terminal domain-containing protein (Phocaeicola dorei, UniProt B6W0N3); assay: as §2
T9 sequence (B6W0N3 whole entry): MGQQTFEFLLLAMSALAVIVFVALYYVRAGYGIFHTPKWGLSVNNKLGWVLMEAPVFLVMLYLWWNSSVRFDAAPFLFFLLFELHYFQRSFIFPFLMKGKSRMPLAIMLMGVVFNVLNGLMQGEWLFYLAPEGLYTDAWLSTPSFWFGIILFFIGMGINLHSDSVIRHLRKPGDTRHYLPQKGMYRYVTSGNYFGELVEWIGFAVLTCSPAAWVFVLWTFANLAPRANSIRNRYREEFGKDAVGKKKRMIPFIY

For `C[C@]12CCC(=O)C=C1[C@@H]1C[C@@H]1[C@H]1[C@@H]3[C@@H]4C[C@@H]4[C@@]4(CCC(=O)O4)[C@@]3(C)CC[C@@H]12` [DROSPIRENONE], the “Bacterial Biotransformation” value (Diguanylate cyclase) was “Compound NOT metabolized”, the “Bacterial Biotransformation” value (Flavodoxin) was “Compound NOT metabolized” and the “Bacterial Biotransformation” value (GDSL-like protein [1]) was “Compound NOT metabolized”. The “Bacterial Biotransformation” value (GDSL-like protein [2]) was “Compound NOT metabolized”, the “Bacterial Biotransformation” value [3] was “Compound NOT metabolized” and the “Bacterial Biotransformation” value (Esterase) was “Compound NOT metabolized”. The “Bacterial Biotransformation” value [4] was “Compound NOT metabolized”, the “Bacterial Biotransformation” value [5] was “Compound NOT metabolized” and the “Bacterial Biotransformation” value [6] was “Compound metabolized”.
